From patent publication US12152264B2, “Phosphinothricin dehydrogenase mutant, genetically engineered bacterium and one-pot multi-enzyme synchronous directed evolution method” (ZHEJIANG UNIVERSITY OF TECHNOLOGY, priority 2020, dated 2024) come the findings set out here.

The structures appear in SMILES notation.

In experiment [1] the target is Pseudomonas fluorescens phosphinothricin dehydrogenase (PPTDH, PfGluDH; WP_150701510.1) mutant A164G_R205K_T332A, SEQ ID No.1 (Pseudomonas azerbaijanoccidentalis, UniProt A0ABS6QXK2, A164G/R205K/T332A). The experiment is classed as biochemical. The conditions noted are these: A164G_R205K_T332A; pH 7.0, 40° C.
For experiment [2], the target named is Pseudomonas fluorescens phosphinothricin dehydrogenase (PPTDH, PfGluDH; NCBI accession number WP_150701510.1), wild type (Pseudomonas azerbaijanoccidentalis, UniProt A0ABS6QXK2). The experiment in a line: Determination of kinetic parameters of wild-type phosphinothricin dehydrogenase (PPO reductive amination with NADPH). As to conditions: pH 7.0, 40° C.

`NC(=O)C1=CN([C@@H]2O[C@H](COP(=O)(O)OP(=O)(O)OC[C@H]3O[C@@H](n4cnc5c(N)ncnc54)[C@H](OP(=O)(O)O)[C@@H]3O)[C@@H](O)[C@H]2O)C=CC1` [NADPH]: the “kcat/Km^A (NADPH)” value in experiment [1] worked out at 1.05761e+07 M⁻¹ s⁻¹; in experiment [2] it was 53360 M⁻¹ s⁻¹.
